Measurements from patent US11254668B2, “Pyrazolo[1,5-A]pyrazin-4-yl and related derivatives” (Pfizer Inc., priority 2017, dated 2022).

Key:
Assay type in all cases: biochemical
JAK1 = JAK1 (Homo sapiens (Human), UniProt P23458); experiment: JAK Caliper Enzyme Assay at 1 mM ATP, JAK1
Method in brief: (§1)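 Recombinant human kinase domains phosphorylated a fluorescent synthetic peptide at room temperature, with enzyme level and time tuned to 20% to 30% conversion; EDTA stop buffer ended reactions. Mobility-shift separation gave percent product from peak heights, normalised to DMSO and positive controls, and IC50s came from concentration–effect curves.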

JAK2 = JAK2 (Homo sapiens (Human), UniProt O60674); experiment: JAK Caliper Enzyme Assay at 1 mM ATP, JAK2
Method in brief: (§2)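 Inhibition is measured as reduced phosphorylation of a synthetic peptide by the recombinant human kinase domain at 1 mM ATP. Conditions give 20–30% conversion at room temperature before EDTA quench, and on-chip separation of labelled substrate and product yields percent conversion for dose–response plotting.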

TYK2 = TYK2 (Homo sapiens (Human), UniProt P29597); experiment: JAK Caliper Enzyme Assay at 1 mM ATP, TYK2
Method in brief: as §2

JAK3 = JAK3 (Homo sapiens (Human), UniProt P52333); experiment: JAK Caliper Enzyme Assay at 1 mM ATP, JAK3
Method in brief: as §1

JAK1, sequence (P23458 875-1153): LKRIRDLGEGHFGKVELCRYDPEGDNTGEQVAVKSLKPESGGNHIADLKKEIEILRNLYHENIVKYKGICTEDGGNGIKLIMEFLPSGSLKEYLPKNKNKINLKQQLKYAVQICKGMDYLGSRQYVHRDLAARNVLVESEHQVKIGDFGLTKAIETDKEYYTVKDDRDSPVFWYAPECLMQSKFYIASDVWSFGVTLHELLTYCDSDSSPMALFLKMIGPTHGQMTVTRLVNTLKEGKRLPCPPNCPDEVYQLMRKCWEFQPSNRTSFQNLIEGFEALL
JAK2, sequence (O60674 849-1124): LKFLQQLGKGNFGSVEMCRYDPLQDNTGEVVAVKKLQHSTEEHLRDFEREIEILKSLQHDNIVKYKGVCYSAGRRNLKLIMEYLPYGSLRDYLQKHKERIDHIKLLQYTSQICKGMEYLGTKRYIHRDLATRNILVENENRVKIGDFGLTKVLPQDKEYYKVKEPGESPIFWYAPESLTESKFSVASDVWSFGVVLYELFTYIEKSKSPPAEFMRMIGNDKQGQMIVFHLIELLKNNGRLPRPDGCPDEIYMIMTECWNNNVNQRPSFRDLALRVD
TYK2, sequence (P29597 897-1176): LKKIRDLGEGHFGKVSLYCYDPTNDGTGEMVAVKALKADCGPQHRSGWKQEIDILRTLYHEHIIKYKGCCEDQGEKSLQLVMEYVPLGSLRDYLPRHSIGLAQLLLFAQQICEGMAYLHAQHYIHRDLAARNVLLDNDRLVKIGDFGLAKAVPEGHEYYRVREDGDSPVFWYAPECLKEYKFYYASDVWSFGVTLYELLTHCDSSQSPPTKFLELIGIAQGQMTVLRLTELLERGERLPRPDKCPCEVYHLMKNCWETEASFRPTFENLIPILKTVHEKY
JAK3, sequence (P52333 822-1111): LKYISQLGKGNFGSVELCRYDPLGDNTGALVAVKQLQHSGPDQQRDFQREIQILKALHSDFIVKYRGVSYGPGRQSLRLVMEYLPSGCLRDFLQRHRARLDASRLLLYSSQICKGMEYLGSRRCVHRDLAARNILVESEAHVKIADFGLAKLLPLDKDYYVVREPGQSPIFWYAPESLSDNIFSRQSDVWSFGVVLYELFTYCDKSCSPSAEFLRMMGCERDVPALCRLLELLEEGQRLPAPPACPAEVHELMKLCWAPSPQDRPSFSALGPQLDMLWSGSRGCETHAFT

Structure (SMILES)	IC50 (JAK1) [µM]	IC50 (JAK2) [µM]	IC50 (TYK2) [µM]	IC50 (JAK3) [µM]
Cc1cc(-c2nc(-c3cn[nH]c3)cc3ncccc23)nn1C1(CC#N)CN(S(C)(=O)=O)C1 [Example 272, [3-{5-methyl-3-[7-(1H-pyrazol-4-yl)-1,6-naphthyridin-5-yl]-1H-pyrazol-1-yl}-1-(methylsulfonyl)azetidin-3-yl]acetonitrile]	3.79	1.39	0.12	> 10
Cc1cc(-c2nc(-c3cn[nH]c3)cc3ncccc23)nn1[C@]1(CC#N)C[C@@H](C#N)C1 [Example 273, trans-3-(cyanomethyl)-3-{5-methyl-3-[7-(1H-pyrazol-4-yl)-1,6-naphthyridin-5-yl]-1H-pyrazol-1-yl}cyclobutanecarbonitrile]	0.786	0.311	0.049	> 10
Cc1cn([C@]2(CC#N)C[C@@H](C#N)C2)nc1-c1nc(-c2cn[nH]c2N)cc2ncccc12 [Example 276, trans-3-{3-[7-(5-amino-1H-pyrazol-4-yl)-1,6-naphthyridin-5-yl]-4-methyl-1H-pyrazol-1-yl}-3-(cyanomethyl)cyclobutanecarbonitrile]	3.48	0.947	0.144	> 10
Cn1cc(-c2cc3ncccc3c(-n3ccc(C4(CC#N)CN(CC(F)(F)F)C4)n3)n2)cn1 [Example 279, [3-{1-[7-(1-methyl-1H-pyrazol-4-yl)-1,6-naphthyridin-5-yl]-1H-pyrazol-3-yl}-1-(2,2,2-trifluoroethyl)azetidin-3-yl]acetonitrile]	6.34	0.686	0.194	> 10
Cn1cc(-c2cc3ncccc3c(-c3cn(C4(CC#N)CN(CC(F)(F)F)C4)nn3)n2)cn1 [Example 280, [3-{4-[7-(1-methyl-1H-pyrazol-4-yl)-1,6-naphthyridin-5-yl]-1H-1,2,3-triazol-1-yl}-1-(2,2,2-trifluoroethyl)azetidin-3-yl]acetonitrile]	0.182	0.028	0.009	3.26
CS(=O)(=O)N1CC(CC#N)(n2ncc(-c3nc(-c4cc[nH]n4)cc4ncccc34)n2)C1 [Example 281, [1-(methylsulfonyl)-3-{4-[7-(1H-pyrazol-3-yl)-1,6-naphthyridin-5-yl]-2H-1,2,3-triazol-2-yl}azetidin-3-yl]acetonitrile]	0.179	0.09	0.016	> 10
Cn1cc(-c2cc3ncccc3c(-c3cc(C4(CC#N)CN(CC#N)C4)no3)n2)cn1 [Example 282]	0.219	0.045	0.06	> 10
CS(=O)(=O)N1CC(CC#N)(n2ccc(-c3cc(-c4cc[nH]n4)cc4ncccc34)n2)C1 [Example 283, [1-(methylsulfonyl)-3-{3-[7-(1H-pyrazol-3-yl)quinolin-5-yl]-1H-pyrazol-1-yl}azetidin-3-yl]acetonitrile]	5.67	2	0.176	> 10
CS(=O)(=O)N1CC(CC#N)(n2ccc(-c3cc(-c4cn[nH]c4)cc4ncccc34)n2)C1 [Example 284, [1-(methylsulfonyl)-3-{3-[7-(1H-pyrazol-4-yl)quinolin-5-yl]-1H-pyrazol-1-yl}azetidin-3-yl]acetonitrile]	6.83	2.5	0.171	> 10
Cn1cc(-c2cc(-c3ccn(C4(CC#N)CN(CC(F)(F)F)C4)n3)c3cccnc3c2)cn1 [Example 285, [3-{3-[7-(1-methyl-1H-pyrazol-4-yl)quinolin-5-yl]-1H-pyrazol-1-yl}-1-(2,2,2-trifluoroethyl)azetidin-3-yl]acetonitrile]	> 10	2.95	0.342	> 10
Cn1cc(-c2cc(-c3ccn(C4(CC#N)CN(S(C)(=O)=O)C4)n3)c3cccnc3c2)cn1 [Example 286, [3-{3-[7-(1-methyl-1H-pyrazol-4-yl)quinolin-5-yl]-1H-pyrazol-1-yl}-1-(methylsulfonyl)azetidin-3-yl]acetonitrile]	> 10	1.81	0.212	> 10
CS(=O)(=O)N1CC(CC#N)(n2ccc(-c3cc(-c4ccc(=O)[nH]c4)cc4ncccc34)n2)C1 [Example 287, [1-(methylsulfonyl)-3-{3-[7-(6-oxo-1,6-dihydropyridin-3-yl)quinolin-5-yl]-1H-pyrazol-1-yl}azetidin-3-yl]acetonitrile]	> 10	5.38	0.201	> 10

Other lines, results leading:

IC50 (JAK1) [µM]	IC50 (JAK2) [µM]	IC50 (TYK2) [µM]	IC50 (JAK3) [µM]	Structure (SMILES)
1.38	0.447	0.027	> 10	Cc1cc(-c2nc(-c3cc[nH]n3)cc3ncccc23)nn1[C@]1(CC#N)C[C@@H](C#N)C1 [Example 269, trans-3-(cyanomethyl)-3-{5-methyl-3-[7-(1H-pyrazol-3-yl)-1,6-naphthyridin-5-yl]-1H-pyrazol-1-yl}cyclobutanecarbonitrile]
6.9	0.574	0.046	> 10	Cc1cc(-c2nc(-c3cc(N)n(C)n3)cc3ncccc23)nn1[C@]1(CC#N)C[C@@H](C#N)C1 [Example 270, trans-3-{3-[7-(5-amino-1-methyl-1H-pyrazol-3-yl)-1,6-naphthyridin-5-yl]-5-methyl-1H-pyrazol-1-yl}-3-(cyanomethyl)cyclobutanecarbonitrile]
0.429	0.046	0.016	7.07	Cc1cc(-c2nc(-c3cc(N)n(C)n3)cc3ncccc23)nn1[C@]1(CC#N)C[C@H](C#N)C1 [Example 271, cis-3-{3-[7-(5-amino-1-methyl-1H-pyrazol-3-yl)-1,6-naphthyridin-5-yl]-5-methyl-1H-pyrazol-1-yl}-3-(cyanomethyl)cyclobutanecarbonitrile]
0.06	0.034	0.009	3.36	Cc1cc(-c2nc(-c3cn[nH]c3)cc3ncccc23)nn1[C@]1(CC#N)C[C@H](C#N)C1 [Example 274, cis-3-(cyanomethyl)-3-{5-methyl-3-[7-(1H-pyrazol-4-yl)-1,6-naphthyridin-5-yl]-1H-pyrazol-1-yl}cyclobutanecarbonitrile]
0.038	0.02	0.013	2.65	Cc1cc(-c2nc(-c3cn[nH]c3N)cc3ncccc23)nn1[C@]1(CC#N)C[C@@H](C#N)C1 [Example 275, trans-3-{3-[7-(5-amino-1H-pyrazol-4-yl)-1,6-naphthyridin-5-yl]-5-methyl-1H-pyrazol-1-yl}-3-(cyanomethyl)cyclobutanecarbonitrile]
> 10	2.3	0.675	> 10	Cc1cn([C@]2(CC#N)C[C@H](C#N)C2)nc1-c1nc(-c2cc(N)n(C)n2)cc2ncccc12 [Example 277, cis-3-{3-[7-(5-amino-1-methyl-1H-pyrazol-3-yl)-1,6-naphthyridin-5-yl]-4-methyl-1H-pyrazol-1-yl}-3-(cyanomethyl)cyclobutanecarbonitrile]
> 10	9.84	1.43	> 10	Cc1cn([C@]2(CC#N)C[C@@H](C#N)C2)nc1-c1nc(-c2cc(N)n(C)n2)cc2ncccc12 [Example 278, trans-3-{3-[7-(5-amino-1-methyl-1H-pyrazol-3-yl)-1,6-naphthyridin-5-yl]-4-methyl-1H-pyrazol-1-yl}-3-(cyanomethyl)cyclobutanecarbonitrile]
